Source: ChEMBL document CHEMBL2321710, “Bioactive polyhydroxylated steroids from the Hainan soft coral Sinularia depressa Tixier-Durivault” (Bioorg Med Chem Lett, 2013)
Converted amounts (≈) assume the structure as drawn.

Legend:
[1] = test system: Staphylococcus aureus; assay: Antibacterial activity against Staphylococcus aureus Newman […]; type: functional, organism-based
[2] = target: Amyloid-beta precursor protein (Homo sapiens) (UniProt P05067); assay: Neuroprotectivie activity against amyloid beta (25 to 35)-induced toxicity in human SH-SY5Y cells assessed as increase in cell viability at 10 uM incubated for 2 hrs prior to amyloid beta (25 to 35)-challenge measured after 24 hrs by MTT assay relative to control; type: functional, cell-based
Sequence of Amyloid-beta precursor protein (Homo sapiens) (P05067 whole entry): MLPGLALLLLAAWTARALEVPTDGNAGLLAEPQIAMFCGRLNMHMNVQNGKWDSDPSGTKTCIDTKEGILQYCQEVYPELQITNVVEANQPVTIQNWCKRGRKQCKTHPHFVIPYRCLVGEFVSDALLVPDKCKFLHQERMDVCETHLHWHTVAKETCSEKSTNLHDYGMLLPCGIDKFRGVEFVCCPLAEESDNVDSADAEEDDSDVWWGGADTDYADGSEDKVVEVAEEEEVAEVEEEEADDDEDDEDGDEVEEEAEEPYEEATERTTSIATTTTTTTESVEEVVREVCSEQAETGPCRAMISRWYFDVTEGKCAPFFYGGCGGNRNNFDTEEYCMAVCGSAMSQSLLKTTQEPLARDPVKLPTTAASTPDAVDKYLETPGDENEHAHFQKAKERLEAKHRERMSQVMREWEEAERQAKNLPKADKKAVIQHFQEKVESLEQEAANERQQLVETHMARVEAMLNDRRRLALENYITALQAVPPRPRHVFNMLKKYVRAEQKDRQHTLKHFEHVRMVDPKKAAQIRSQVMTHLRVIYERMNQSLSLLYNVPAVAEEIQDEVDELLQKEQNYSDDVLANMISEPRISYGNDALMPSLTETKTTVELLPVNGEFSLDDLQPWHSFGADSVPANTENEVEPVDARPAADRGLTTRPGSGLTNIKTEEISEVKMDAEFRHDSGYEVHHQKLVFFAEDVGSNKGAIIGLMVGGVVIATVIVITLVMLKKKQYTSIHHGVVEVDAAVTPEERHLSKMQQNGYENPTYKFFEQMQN

[3] = Neuroprotectivie activity against serum deprivation-induced toxicity in human SH-SY5Y cells assessed as increase in cell viability at 10 uM relative to control; type: functional
[4] = target: T1, Tyrosine-protein phosphatase non-receptor type 1 (Homo sapiens, UniProt P18031); assay: Inhibition of human PTP1B
T1 sequence (P18031 whole entry): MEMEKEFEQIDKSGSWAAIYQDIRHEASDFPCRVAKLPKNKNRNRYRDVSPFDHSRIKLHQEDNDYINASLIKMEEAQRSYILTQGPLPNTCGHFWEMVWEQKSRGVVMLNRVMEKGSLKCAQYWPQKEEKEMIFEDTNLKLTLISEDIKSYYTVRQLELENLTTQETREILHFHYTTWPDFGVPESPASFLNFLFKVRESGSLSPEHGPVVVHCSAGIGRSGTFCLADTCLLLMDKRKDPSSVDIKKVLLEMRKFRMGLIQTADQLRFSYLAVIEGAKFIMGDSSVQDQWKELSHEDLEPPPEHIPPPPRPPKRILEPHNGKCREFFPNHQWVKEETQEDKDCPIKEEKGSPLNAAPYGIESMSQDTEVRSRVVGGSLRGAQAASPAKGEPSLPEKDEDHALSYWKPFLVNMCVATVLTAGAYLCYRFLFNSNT

| MIC50 [1] [µM] | SMILES | IC50 [4] [µM] | also measured |
| --- | --- | --- | --- |
| 15.6 (≈ 7.66 µg/mL) | C=C(CC[C@@H](C)[C@H]1CC[C@H]2[C@@H]3C[C@@H](O)[C@@]4(O)C[C@@H](O)CC[C@]4(COC(C)=O)[C@H]3CC[C@]12C)C(C)C [ARMATINOL B] | – | – |
| 1000 (≈ 473 µg/mL) | C=C(CC[C@@H](C)[C@H]1CC[C@H]2[C@@H]3[C@@H](OC(C)=O)C=C4C[C@@H](O)CC[C@]4(CO)[C@H]3CC[C@]12C)C(C)C | – | – |
| – | C=C(CC[C@@H](C)[C@H]1CC[C@@H]2[C@]1(C)C[C@H](O)[C@@H]1[C@@]3(C)CC[C@H](O)[C@@H](C)[C@@H]3CC[C@@]21O)C(C)C | – | Activity [2]: 20.1% |
| – | C[C@@H]1O[C@@H]1P(=O)(O)O [FOSFOMYCIN SODIUM] | – | IC50 [1]: 137 µM |
| – | C=C(CC[C@@H](C)[C@H]1CC[C@H]2[C@@H]3CCC4=CC(=O)CC[C@]4(C)[C@H]3CC[C@]12C)C(C)C | 15.3 | Activity [3]: 16.9%; Activity [2]: 16.6% |
| – | C=C(CC[C@@H](C)[C@H]1CC[C@H]2[C@@H]3CC[C@H]4[C@H](C)[C@@H](O)CC[C@]4(C)[C@H]3CC[C@]12C)C(C)C | 19.5 | – |
| – | C=C(CC[C@@H](C)[C@H]1CC[C@@H]2[C@]1(C)CC[C@@H]1[C@@]3(C)CC[C@H](OC(C)=O)[C@@H](C)[C@@H]3CC[C@@]21O)C(C)C | 22.7 | – |

| SMILES | MIC50 [1] [µM] | IC50 [4] [µM] | also measured |
| --- | --- | --- | --- |
| C=C(CC[C@@H](C)[C@H]1CC[C@@H]2[C@]1(C)CC[C@H]1[C@]23CC[C@]2(C[C@@H](O)CC[C@]12C)OO3)C(C)C | 500 (≈ 215 µg/mL) | – | – |
